Data as given in the NIST ThermoML archive (doi:10.1021/je0341413).

How the values were obtained:
[1] = Liquid; for viscosity: 101.3 kPa; for mass density: 101.33 kPa
[2] = xn = mol fraction of the nth substance listed; conditions: 101.3 kPa, Liquid

CCCCO [butan-1-ol]
[1]
Conditions	mass density [kg/m3]	viscosity [mPa·s]
293.15 K	–	2.941
298.15 K	805.9	2.62
303.15 K	–	2.255
313.15 K	–	1.754

CCCCO [butan-1-ol] + CCOC(=O)OCC
[2], x2 = 0
Conditions	viscosity [mPa·s]
293.15 K	2.941
298.15 K	2.62
303.15 K	2.255
313.15 K	1.754

CCC(C)O (stereo not given) [butan-2-ol]
[1]
Conditions	mass density [kg/m3]	viscosity [mPa·s]
293.15 K	–	3.619
298.15 K	802.4	3.115
303.15 K	–	2.503
313.15 K	–	1.784

CCC(C)O (stereo not given) [butan-2-ol] + CCOC(=O)OCC
[2], x2 = 0
Conditions	viscosity [mPa·s]
293.15 K	3.619
298.15 K	3.115
303.15 K	2.503
313.15 K	1.784

CCOC(=O)OCC [diethyl carbonate]
[1]
Conditions	mass density [kg/m3]	viscosity [mPa·s]
293.15 K	–	0.795
298.15 K	969.1	0.749
303.15 K	–	0.699
313.15 K	–	0.623

CCOC(=O)OCC [diethyl carbonate] + CC(C)O
[2]
Conditions	viscosity [mPa·s]
293.15 K, x1 = 0.0502	1.973
293.15 K, x1 = 0.1001	1.67
293.15 K, x1 = 0.203	1.27
293.15 K, x1 = 0.3012	1.073
293.15 K, x1 = 0.3954	0.962
293.15 K, x1 = 0.5021	0.886
293.15 K, x1 = 0.6035	0.841
293.15 K, x1 = 0.6976	0.811
293.15 K, x1 = 0.8048	0.794
293.15 K, x1 = 0.9129	0.796
293.15 K, x1 = 0.9529	0.799
293.15 K, x1 = 1	0.795
298.15 K, x1 = 0.049	1.766
298.15 K, x1 = 0.0987	1.501
298.15 K, x1 = 0.1978	1.135
298.15 K, x1 = 0.2945	0.94
298.15 K, x1 = 0.3925	0.836
298.15 K, x1 = 0.4925	0.788
298.15 K, x1 = 0.5939	0.763
298.15 K, x1 = 0.7004	0.74
298.15 K, x1 = 0.7979	0.719
298.15 K, x1 = 0.8967	0.717
298.15 K, x1 = 0.9504	0.726
298.15 K, x1 = 1	0.749
303.15 K, x1 = 0.0522	1.468
303.15 K, x1 = 0.099	1.277
303.15 K, x1 = 0.1944	1.009
303.15 K, x1 = 0.2913	0.864
303.15 K, x1 = 0.392	0.777
303.15 K, x1 = 0.4763	0.733
303.15 K, x1 = 0.5883	0.702
303.15 K, x1 = 0.6972	0.683
303.15 K, x1 = 0.7854	0.68
303.15 K, x1 = 0.889	0.684
303.15 K, x1 = 0.9488	0.69
303.15 K, x1 = 1	0.699
313.15 K, x1 = 0.0506	1.148
313.15 K, x1 = 0.0997	1.011
313.15 K, x1 = 0.2016	0.821
313.15 K, x1 = 0.303	0.71
313.15 K, x1 = 0.4008	0.661
313.15 K, x1 = 0.4969	0.634
313.15 K, x1 = 0.599	0.617
313.15 K, x1 = 0.7007	0.604
313.15 K, x1 = 0.8011	0.594
313.15 K, x1 = 0.903	0.596
313.15 K, x1 = 0.9511	0.605
313.15 K, x1 = 1	0.623

CCOC(=O)OCC [diethyl carbonate] + CCC(C)O
[2]
Conditions	viscosity [mPa·s]
293.15 K, x1 = 0.0512	2.892
293.15 K, x1 = 0.1031	2.341
293.15 K, x1 = 0.2021	1.652
293.15 K, x1 = 0.2997	1.289
293.15 K, x1 = 0.4023	1.092
293.15 K, x1 = 0.5115	0.979
293.15 K, x1 = 0.607	0.91
293.15 K, x1 = 0.707	0.861
293.15 K, x1 = 0.8038	0.825
293.15 K, x1 = 0.9089	0.804
293.15 K, x1 = 0.9524	0.803
293.15 K, x1 = 1	0.795
298.15 K, x1 = 0.0509	2.485
298.15 K, x1 = 0.101	2.001
298.15 K, x1 = 0.202	1.379
298.15 K, x1 = 0.3002	1.071
298.15 K, x1 = 0.404	0.937
298.15 K, x1 = 0.5003	0.888
298.15 K, x1 = 0.6008	0.858
298.15 K, x1 = 0.6963	0.813
298.15 K, x1 = 0.7987	0.752
298.15 K, x1 = 0.8999	0.709
298.15 K, x1 = 0.9466	0.712
298.15 K, x1 = 1	0.749
303.15 K, x1 = 0.0517	2.023
303.15 K, x1 = 0.1132	1.623
303.15 K, x1 = 0.2267	1.211
303.15 K, x1 = 0.3316	1.021
303.15 K, x1 = 0.4467	0.89
303.15 K, x1 = 0.5422	0.809
303.15 K, x1 = 0.6426	0.739
303.15 K, x1 = 0.7416	0.698
303.15 K, x1 = 0.8281	0.684
303.15 K, x1 = 0.9196	0.691
303.15 K, x1 = 0.9494	0.697
303.15 K, x1 = 1	0.699
313.15 K, x1 = 0.0511	1.503
313.15 K, x1 = 0.1026	1.28
313.15 K, x1 = 0.1988	0.996
313.15 K, x1 = 0.2955	0.83
313.15 K, x1 = 0.4041	0.738
313.15 K, x1 = 0.5084	0.69
313.15 K, x1 = 0.5983	0.662
313.15 K, x1 = 0.6988	0.636
313.15 K, x1 = 0.8034	0.61
313.15 K, x1 = 0.9022	0.601
313.15 K, x1 = 0.9523	0.606
313.15 K, x1 = 1	0.623

CCOC(=O)OCC [diethyl carbonate] + CCCCCO
[2]
Conditions	viscosity [mPa·s]
293.15 K, x1 = 0.0496	3.384
293.15 K, x1 = 0.1016	2.868
293.15 K, x1 = 0.2034	2.125
293.15 K, x1 = 0.3124	1.618
293.15 K, x1 = 0.3801	1.412
293.15 K, x1 = 0.5085	1.162
293.15 K, x1 = 0.6047	1.051
293.15 K, x1 = 0.7068	0.955
293.15 K, x1 = 0.8058	0.88
293.15 K, x1 = 0.9058	0.825
293.15 K, x1 = 0.9521	0.804
293.15 K, x1 = 1	0.795
298.15 K, x1 = 0.0459	2.91
298.15 K, x1 = 0.0984	2.492
298.15 K, x1 = 0.2067	1.857
298.15 K, x1 = 0.3012	1.497
298.15 K, x1 = 0.4002	1.242
298.15 K, x1 = 0.5091	1.067
298.15 K, x1 = 0.5884	0.972
298.15 K, x1 = 0.6988	0.871
298.15 K, x1 = 0.7986	0.802
298.15 K, x1 = 0.9133	0.751
298.15 K, x1 = 0.9663	0.745
298.15 K, x1 = 1	0.749
303.15 K, x1 = 0.0541	2.471
303.15 K, x1 = 0.0951	2.186
303.15 K, x1 = 0.1968	1.664
303.15 K, x1 = 0.292	1.356
303.15 K, x1 = 0.3986	1.131
303.15 K, x1 = 0.4966	0.992
303.15 K, x1 = 0.5963	0.88
303.15 K, x1 = 0.6847	0.803
303.15 K, x1 = 0.7988	0.733
303.15 K, x1 = 0.8885	0.706
303.15 K, x1 = 0.9493	0.7
303.15 K, x1 = 1	0.699
313.15 K, x1 = 0.0505	1.97
313.15 K, x1 = 0.1009	1.729
313.15 K, x1 = 0.2038	1.359
313.15 K, x1 = 0.3044	1.12
313.15 K, x1 = 0.4054	0.96
313.15 K, x1 = 0.5077	0.845
313.15 K, x1 = 0.5969	0.771
313.15 K, x1 = 0.71	0.697
313.15 K, x1 = 0.81	0.65
313.15 K, x1 = 0.9036	0.623
313.15 K, x1 = 0.9537	0.621
313.15 K, x1 = 1	0.623

CCOC(=O)OCC [diethyl carbonate] + CCCCO
[2]
Conditions	viscosity [mPa·s]
293.15 K, x1 = 0.051	2.5
293.15 K, x1 = 0.1027	2.148
293.15 K, x1 = 0.2008	1.672
293.15 K, x1 = 0.2978	1.376
293.15 K, x1 = 0.4026	1.173
293.15 K, x1 = 0.5079	1.031
293.15 K, x1 = 0.6014	0.944
293.15 K, x1 = 0.7033	0.878
293.15 K, x1 = 0.7986	0.841
293.15 K, x1 = 0.9031	0.814
293.15 K, x1 = 0.951	0.81
293.15 K, x1 = 1	0.795
298.15 K, x1 = 0.0519	2.203
298.15 K, x1 = 0.0993	1.899
298.15 K, x1 = 0.1996	1.445
298.15 K, x1 = 0.2923	1.195
298.15 K, x1 = 0.3989	1.03
298.15 K, x1 = 0.5017	0.939
298.15 K, x1 = 0.6016	0.874
298.15 K, x1 = 0.7043	0.815
298.15 K, x1 = 0.8002	0.766
298.15 K, x1 = 0.8968	0.736
298.15 K, x1 = 0.9471	0.734
298.15 K, x1 = 1	0.749
303.15 K, x1 = 0.0508	1.905
303.15 K, x1 = 0.1004	1.642
303.15 K, x1 = 0.2016	1.3
303.15 K, x1 = 0.3	1.101
303.15 K, x1 = 0.3917	0.977
303.15 K, x1 = 0.5032	0.87
303.15 K, x1 = 0.597	0.794
303.15 K, x1 = 0.7099	0.729
303.15 K, x1 = 0.8216	0.699
303.15 K, x1 = 0.9035	0.697
303.15 K, x1 = 0.9488	0.697
303.15 K, x1 = 1	0.699
313.15 K, x1 = 0.0506	1.535
313.15 K, x1 = 0.1007	1.356
313.15 K, x1 = 0.2005	1.09
313.15 K, x1 = 0.2975	0.926
313.15 K, x1 = 0.4122	0.802
313.15 K, x1 = 0.5035	0.741
313.15 K, x1 = 0.6084	0.691
313.15 K, x1 = 0.7044	0.656
313.15 K, x1 = 0.8055	0.634
313.15 K, x1 = 0.9016	0.618
313.15 K, x1 = 0.9486	0.617
313.15 K, x1 = 1	0.623
